Laboratory results published in PubChem BioAssay (NCI).
Several values for one entry are separate records, joined by “and”; a condition that tells them apart may be missing. Equal values may be shown once.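 Values below derive from 48-hour exposures of cells grown in 96-well plates, with endpoints linearly interpolated between the two concentrations bracketing the appropriate inhibition level. GI50 = concentration required for 50% inhibition of growth. The concentration for full growth arrest is given as TGI.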

Experiments:
Experiment in all cases: growth of human tumour cells (NCI), 48 h
[1] = tested on: MDA-MB-435
[2] = tested on: DU-145 prostate
[3] = tested on: RXF 393 renal
[4] = tested on: OVCAR-8 ovarian
[5] = tested on: MCF7 breast
[6] = tested on: NCI-H23 lung
[7] = tested on: M14 melanoma
[8] = tested on: HCT-116 colon
[9] = tested on: A549 NSCLC
[10] = tested on: HL-60(TB) leukemia

SMILES | GI50 [1] [µM] | TGI [1] [µM] | GI50 [2] [µM] | TGI [2] [µM] | GI50 [3] [µM] | TGI [3] | GI50 [4] [µM] | TGI [4] | TGI [5] | TGI [6] | TGI [7] [µM] | TGI [8] | TGI [9] [µM] | GI50 [10] | TGI [10] | GI50 [5] [µM] | GI50 [6] [µM] | GI50 [7] [µM] | GI50 [9] [µM] | GI50 [8] [µM]
Cc1[nH]c(C(=O)Nc2ccc(C(=O)NCCN)cc2OC(C)C)c(Cl)c1Cl | 1.66 | 3.08 | 1.69 | 3.14 | 1.71 | 3.36 µM | 2.23 | 5.43 µM | – | – | – | – | – | – | – | – | – | – | – | –
c1ccc(/C(=N\Nc2nc3ccccc3[nH]2)c2ccccn2)cc1 | – | 13.7 | – | > 100 | – | 14.4 µM | – | 1.05 µM | 5.45 µM | 14.5 µM | 1.89 | 4.52 µM | 22.1 | – | – | – | – | – | – | –
CC(C)CCN(CCC(C)C)CC(=O)Nc1ccc(S(=O)(=O)c2ccc(NC(=O)CN(CCC(C)C)CCC(C)C)cc2)cc1 | 2.15 | 6.07 | 2.29 | 6.16 | 1.79 | 5.87 µM | 2.89 | > 100 µM | 11 µM | 4.84 µM | 4.01 | – | 25.7 | 2.22 µM | 5.79 µM | 1.31 | 1.81 | 1.58 | 5.38 | –
C[N+]1(C(CO)Cc2c[nH]c3ccccc23)Cc2ccccc2C1 (stereo not given) | – | > 100 | – | > 100 | – | > 100 µM | – | > 100 µM | > 100 µM | > 100 µM | > 100 | > 100 µM | > 100 | – | > 100 µM | – | – | – | – | –
C[n+]1c2ccccc2c(N=[N+]=[N-])c2ccccc21 | – | > 10 | – | > 10 | – | > 10 µM | – | > 10 µM | > 10 µM | > 10 µM | > 10 | > 10 µM | > 10 | – | > 10 µM | – | – | – | – | –
C=C(CN(C)C)C(=O)c1ccccc1OC | – | 34.2 | – | > 64 | – | 23.7 µM | – | 50 µM | – | 33.7 µM | 28.9 | 30.9 µM | > 100 | – | > 35.8 µM | – | – | – | – | –
O=C1OC(c2ccc(O)cc2)(c2ccc(O)cc2)c2ccc(Cl)c3cccc1c23 (tested in a mixture with another compound) | – | 18.9 | – | > 75 | – | 27.4 µM | – | 38.9 µM | > 75 µM | 31 µM | 19.8 | 18.9 µM | > 75 | – | – | – | – | – | – | –
O=C1Nc2cccc(Cl)c2/C1=C\c1cccnc1 | – | 19.8 | – | 35.9 | – | 7.48 µM | – | 20.1 µM | 18.1 µM | 15.8 µM | 19.6 | 11.3 µM | 33.6 | – | > 100 µM | – | – | – | – | –
CCCCCCCCCCCCc1ccc(S(=O)(=O)O)cc1.[Cu+2] | – | > 100 | – | > 100 | – | > 100 µM | – | > 100 µM | > 100 µM | > 100 µM | > 100 | > 100 µM | > 100 | – | > 100 µM | – | – | – | – | –
COc1ccccc1C#C/C=C\C#Cc1ccccc1C#N | – | 14.5 | – | > 100 | – | 83.5 µM | – | 34.4 µM | 28 µM | 25 µM | 46.5 | 27.7 µM | > 100 | – | > 100 µM | – | – | – | – | –
CC(=O)OC(C(=O)O)C(OC(C)=O)C(OC(C)=O)C(OC(C)=O)C(=O)O (stereo not given) | – | > 100 | – | – | – | – | – | > 100 µM | > 100 µM | > 100 µM | > 100 | > 100 µM | > 100 | – | > 100 µM | – | – | – | – | –
O=C(CSCC(=O)N/N=C\c1ccc(F)cc1F)N/N=C\c1ccc(F)cc1F | – | > 100 | – | > 100 | – | > 100 µM | – | > 100 µM | > 100 µM | > 100 µM | > 100 | > 100 µM | > 100 | – | > 100 µM | – | – | – | – | –
CC(C)CNC1=NCC(C)S1 (stereo not given) | – | > 100 | – | > 100 | – | > 100 µM | – | – | > 100 µM | > 100 µM | > 100 | > 100 µM | > 100 | – | > 100 µM | – | – | – | – | –
COC(=O)c1c(O)ccc2c1c1c(n2CCc2ccc(OC)c(OC)c2)C(=O)c2ccccc2C1=O | – | 29.2 | – | 29.5 | – | 39.5 µM | – | 32.6 µM | 45.2 µM | 31.5 µM | 31 | 26.7 µM | 47.2 | – | 59 µM | – | – | – | – | –
CC[C@@]1(O)CC(OC2CC(N3CCOCC3)C(O)C(C)O2)c2c(O)c3c(c(O)c2[C@H]1O)C(=O)c1cccc(O)c1C3=O (stereo not given in full) | – | 1.14 | – | 0.852 | – | 0.715 µM and 1.15 µM | 0.0285 | 1.07 µM and 5.5 µM | 2.58 µM and 13.8 µM | 1.95 µM and 1.09 µM | 1.51 | 4.27 µM and 3.5 µM | 0.6 | 0.000481 µM and < 0.0113 µM | 0.431 µM and 0.36 µM | 0.0161 | 0.101 | – | 0.000605 | 0.0149
O=C(O)c1cc2ccccc2c(N=Nc2ccc(S(=O)(=O)Nc3ccccn3)cc2)c1O | – | > 100 | – | > 100 | – | > 100 µM | – | > 100 µM | > 100 µM | – | > 100 | > 100 µM | > 100 | – | > 100 µM | – | – | – | – | –
